Measurements from ChEMBL document CHEMBL5584289, “Molecular understanding of the therapeutic potential of melanin inhibiting natural products” (RSC Med Chem, 2024).
In brackets after ≈: the same amount, converted by molar mass. Values belong to the compound of their own block, whether it stands above or below them. Peptide text beside a SMILES is read from it.

Experiments:
[1] = Acute toxicity in zebrafish embryos assessed as lethal concentration compound measured for every 24 hrs in 96 hrs; set-up: species or system Danio rerio; conditions: in vivo
[2] = Inhibition of Artocarpus chama tyrosinase
[3] = molecular target: T1, Mushroom tyrosinase (Agaricus bisporus) (UniProt O42713+Q00024+C7FF04+C7FF05); test: Inhibition of mushroom tyrosinase at 25 uM using L-tyrosine as substrate incubated for 30 mins relative to control; assay type: protein assay
Mushroom tyrosinase [4] = molecular target: T2, Mushroom tyrosinase (Agaricus bisporus, UniProt O42713+Q00024+C7FF04+C7FF05); test: Inhibition of mushroom tyrosinase monophenolase activity; assay type: protein assay
[5] = Antioxidant activity assessed as DPPH radical scavenging activity; assay type: functional
[6] = Antioxidant activity assessed as hydroxyl radical scavenging activity at 10 uM; assay type: functional
[7] = Antioxidant activity assessed as interaction reducing activity with DPPH at 10 uM measured after 1 hr by absorbance based assay; assay type: functional
B16-F10 [8] = test: Cytotoxicity against mouse B16-F10 cells assessed as reduction in cell viability at 15 uM incubated for 72 hrs relative to control; assay type: functional
[9] = molecular target: T1, Mushroom tyrosinase (Agaricus bisporus); test: Inhibition of mushroom tyrosinase at 50 ug/ml relative to control; assay type: protein assay; conditions: dose 50.0 µg/ml
[10] = Antioxidant activity assessed as ABTS radical scavenging activity; assay type: functional
[11] = Antioxidant activity assessed as DPPH radical scavenging activity measured after 30 mins; assay type: functional
Mushroom tyrosinase [12] = molecular target: T2, Mushroom tyrosinase; test: Inhibition of mushroom tyrosinase; assay type: protein assay
MNT-1 = test: Antiproliferative activity against human MNT-1 cells assessed as reduction in cell viability incubated for 72 hrs by MTT assay; assay type: functional, cell-based; conditions: MNT-1, 72 h
Mushroom tyrosinase [13] = molecular target: T2, Mushroom tyrosinase; test: Inhibition of mushroom tyrosinase diphenolase activity; assay type: protein assay
B16 = test: Cytotoxicity against mouse B16 cells assessed as inhibition of cell proliferation incubated for 48 hrs by MTS assay; assay type: functional, cell-based; conditions: B16, 48 h
[14] = molecular target: T1, Mushroom tyrosinase (Agaricus bisporus); test: Inhibition of mushroom tyrosinase at 12.5 ug/ml using L-DOPA as substrate relative to control; assay type: protein assay; conditions: dose 12.5 µg/ml
[15] = molecular target: T1, Mushroom tyrosinase (Agaricus bisporus); test: Inhibition of mushroom tyrosinase monophenolase activity at 12.5 ug/ml using L-tyrosine as substrate relative to control; assay type: protein assay; conditions: dose 12.5 µg/ml
B16-F10 [16] = test: Cytotoxicity against mouse B16-F10 cells; assay type: functional, cell-based
B16-F10 [17] = test: Antimelanogenic activity against alpha-MSH-stimulated mouse B16-F10 cells assessed as intracellular melanin production level at 10 uM pre-incubated for 1 hrs followed by alph-MSH stimulation and measured after 72 hrs by microplate reader analysis; assay type: functional; conditions: time 73 hrs

Compound: COc1c(O)c(OC)c2c(oc3c(O)cccc32)c1OC
- LC50 at 24 h [1]: 4 µg/mL (≈ 13.8 µM)

Compound: COc1cc2c(oc3c(O)cccc32)c(OC)c1OC
- LC50 at 24 h [1]: 37 µg/mL (≈ 135 µM)

- IC50 [2]: 38.78 µg/mL (≈ 128 µM)
Compound: COc1cc(O)c2c(c1)OC(c1ccc(O)cc1O)CC2=O (stereo unspecified)

- inhibition [3]: 94.9%
- IC50 (Mushroom tyrosinase [4]): 0.17 µM
Compound: C[C@@]12C[C@@]3(O)O[C@@H](O1)[C@]1(COC(=O)c4ccccc4)[C@H]3C[C@@]12O[C@@H]1O[C@H](COC(=O)c2cc(O)c(O)c(O)c2)[C@@H](O)[C@H](O)[C@H]1O

- IC50 ([5]; read-out: IC50): 11.3 µM
- IC50 [6]: 9.3 µM
- IC50 [7]: 69.1 µM
Compound: CC(=O)CC(=O)c1ccc(O)c(O)c1

Compound: COc1ccc2c(c1)oc1c(OC)c(O)c(OC)cc12
- LC50 at 24 h [1]: 30 µg/mL (≈ 109 µM)

Compound: COc1cc2c(cc1O)[C@@H]1COc3cc(O)ccc3[C@@H]1O2
- Activity (B16-F10 [8]): 14%

- inhibition [9]: 16.3%
Compound: O=C(O)CC(OC(=O)/C=C/c1ccc(O)cc1)C(=O)O (stereo unspecified)

Compound: NCCCC[C@H](NC(=O)[C@H](Cc1cnc[nH]1)NC(=O)CN)C(=O)O (H-Gly-His-Lys-OH)
- LC50 at 24 h [1]: 30 µg/mL (≈ 88.1 µM)

- IC50 [10]: 44.62 µg/mL (≈ 253 µM)
- IC50 [5]: 67.45 µg/mL
- IC50 [11]: 5.65 µg/mL (≈ 32.1 µM)
Compound: O=C1O[C@H]([C@@H](O)CO)C(O)=C1O [ASCORBIC ACID]

- IC50 (Mushroom tyrosinase [12]): 30 µM
Compound: O=C(/C=C/c1ccc(O)c(O)c1)OC(C(=O)O)C(O)C(=O)O (stereo unspecified) [CAFFEOYLTARTARIC ACID]

Compound: COc1cc(O)c2c(=O)c(-c3ccc(O)cc3O)coc2c1 [CAJANIN]
- IC50 (MNT-1): 1 µM

- IC50 (Mushroom tyrosinase [13]): 0.07 µM
- IC50 (Mushroom tyrosinase [4]): 0.06 µM
Compound: Oc1cc(O)c2c(c1)O[C@H](c1ccc(O)c(O)c1)[C@@H](O)C2 [CIANIDANOL]

- IC50 [5]: 7.31 µg/mL
- inhibition [3]: 92.6%
Compound: CC1(C)[C@@H](O)CC[C@]2(C)[C@H]3C(=O)C=C4[C@@H]5C[C@@](C)(C(=O)O)CC[C@]5(C)CC[C@@]4(C)[C@]3(C)CC[C@@H]12 [ENOXOLONE]

Compound: O=C(O)c1cc(O)c(O)c(O)c1 [GALLIC ACID]
- IC50 (Mushroom tyrosinase [13]): 1.06 µM
- IC50 (Mushroom tyrosinase [4]): 1.53 µM

Compound: O=C(OC[C@H]1O[C@@H](OC(=O)c2cc(O)c(O)c(O)c2)[C@H](OC(=O)c2cc(O)c(O)c(O)c2)[C@@H](OC(=O)c2cc(O)c(O)c(O)c2)[C@@H]1OC(=O)c1cc(O)c(O)c(O)c1)c1cc(O)c(O)c(O)c1 [PENTAGALLOYL GLUCOSE]
- IC50 (Mushroom tyrosinase [13]): 0.02 µM
- IC50 (Mushroom tyrosinase [4]): 0.02 µM

- inhibition [14]: 40.9%
- inhibition [15]: 39.5%
Compound: C=C(CC[C@@H](C(=O)O)[C@H]1[C@H](O)C[C@@]2(C)C3=CC[C@@H](C(=C)C)[C@](C)(CCC(=O)O)C3=CC[C@]12C)C(C)C [PORICOIC ACID A]
- IC50 (B16): 48 µg/mL (≈ 96.3 µM)

- IC50 [10]: 135.31 µg/mL (≈ 293 µM)
- IC50 (Mushroom tyrosinase [12]): 2.62 µg/mL
- IC50 [11]: 69.36 µg/mL (≈ 150 µM)
Compound: COc1c(O[C@@H]2O[C@H](CO)[C@@H](O)[C@H](O)[C@H]2O)cc2occ(-c3ccc(O)cc3)c(=O)c2c1O [TECTORIDIN]

- IC50 [10]: 45.6 µg/mL (≈ 152 µM)
- IC50 (Mushroom tyrosinase [12]): 1.39 µg/mL
- IC50 [11]: 46.34 µg/mL (≈ 154 µM)
Compound: COc1c(O)cc2occ(-c3ccc(O)cc3)c(=O)c2c1O [TECTORIGENIN]

Compound: Cc1ccc(C(C)C)c(O)c1 [THYMOL]
- IC50 (B16-F10 [16]): 160 µM

Compound: C/C1=C\CC(C)(C)/C=C/C(=O)/C(C)=C/CC1 [ZERUMBONE]
- Activity (B16-F10 [17]): 40%
